Measurements published in EP4678638A1, “NEW E3 UBIQUITIN LIGASE LIGAND, PROTEIN DEGRADATION AGENT AND USE THEREOF” (priority 2023, dated 2024).
Like-named read-outs stand apart in the source and are kept apart here.

Experiments:
Type in all cases: cell-based
WEE1 = target: T1, WEE1 (Homo sapiens, UniProt P30291+Q96SW2); assay: Western blot degradation of WEE1 (hPBMC); conditions: Table D16
T1 construct: evaluate the effects of the compounds of the present disclosure on the expression of target proteins in cells; endogenous in cells; host or cells: hPBMC
T1 sequence (P30291 whole entry): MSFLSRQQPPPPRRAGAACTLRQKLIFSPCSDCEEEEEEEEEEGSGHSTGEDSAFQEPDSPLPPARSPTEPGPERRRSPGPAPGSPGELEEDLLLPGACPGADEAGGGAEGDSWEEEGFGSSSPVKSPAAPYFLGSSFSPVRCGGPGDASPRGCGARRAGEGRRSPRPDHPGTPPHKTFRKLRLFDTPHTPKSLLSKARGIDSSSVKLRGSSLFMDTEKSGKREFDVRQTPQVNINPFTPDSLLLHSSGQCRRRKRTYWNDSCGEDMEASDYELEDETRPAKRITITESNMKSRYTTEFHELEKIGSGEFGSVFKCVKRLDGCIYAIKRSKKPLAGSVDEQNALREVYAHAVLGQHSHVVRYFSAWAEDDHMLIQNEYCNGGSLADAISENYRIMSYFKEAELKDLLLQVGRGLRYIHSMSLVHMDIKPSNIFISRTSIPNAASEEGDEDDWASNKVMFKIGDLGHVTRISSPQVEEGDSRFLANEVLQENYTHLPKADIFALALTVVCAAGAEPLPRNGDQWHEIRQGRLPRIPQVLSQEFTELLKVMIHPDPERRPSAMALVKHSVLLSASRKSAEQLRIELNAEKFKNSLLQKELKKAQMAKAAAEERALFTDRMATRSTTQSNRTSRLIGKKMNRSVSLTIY
T1 sequence (Q96SW2 whole entry): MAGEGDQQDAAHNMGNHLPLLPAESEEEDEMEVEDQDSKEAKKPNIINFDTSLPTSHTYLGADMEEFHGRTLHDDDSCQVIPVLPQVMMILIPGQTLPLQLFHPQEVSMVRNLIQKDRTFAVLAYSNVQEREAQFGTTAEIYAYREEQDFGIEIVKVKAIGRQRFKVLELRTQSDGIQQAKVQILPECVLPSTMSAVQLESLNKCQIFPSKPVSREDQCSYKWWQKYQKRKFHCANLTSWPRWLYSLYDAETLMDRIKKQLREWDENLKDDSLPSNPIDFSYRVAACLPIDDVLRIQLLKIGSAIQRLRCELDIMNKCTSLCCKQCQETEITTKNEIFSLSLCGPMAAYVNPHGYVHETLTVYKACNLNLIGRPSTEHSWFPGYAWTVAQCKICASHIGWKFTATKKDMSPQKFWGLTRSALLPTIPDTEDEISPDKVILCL
T1 sequence (Q16531 whole entry partner): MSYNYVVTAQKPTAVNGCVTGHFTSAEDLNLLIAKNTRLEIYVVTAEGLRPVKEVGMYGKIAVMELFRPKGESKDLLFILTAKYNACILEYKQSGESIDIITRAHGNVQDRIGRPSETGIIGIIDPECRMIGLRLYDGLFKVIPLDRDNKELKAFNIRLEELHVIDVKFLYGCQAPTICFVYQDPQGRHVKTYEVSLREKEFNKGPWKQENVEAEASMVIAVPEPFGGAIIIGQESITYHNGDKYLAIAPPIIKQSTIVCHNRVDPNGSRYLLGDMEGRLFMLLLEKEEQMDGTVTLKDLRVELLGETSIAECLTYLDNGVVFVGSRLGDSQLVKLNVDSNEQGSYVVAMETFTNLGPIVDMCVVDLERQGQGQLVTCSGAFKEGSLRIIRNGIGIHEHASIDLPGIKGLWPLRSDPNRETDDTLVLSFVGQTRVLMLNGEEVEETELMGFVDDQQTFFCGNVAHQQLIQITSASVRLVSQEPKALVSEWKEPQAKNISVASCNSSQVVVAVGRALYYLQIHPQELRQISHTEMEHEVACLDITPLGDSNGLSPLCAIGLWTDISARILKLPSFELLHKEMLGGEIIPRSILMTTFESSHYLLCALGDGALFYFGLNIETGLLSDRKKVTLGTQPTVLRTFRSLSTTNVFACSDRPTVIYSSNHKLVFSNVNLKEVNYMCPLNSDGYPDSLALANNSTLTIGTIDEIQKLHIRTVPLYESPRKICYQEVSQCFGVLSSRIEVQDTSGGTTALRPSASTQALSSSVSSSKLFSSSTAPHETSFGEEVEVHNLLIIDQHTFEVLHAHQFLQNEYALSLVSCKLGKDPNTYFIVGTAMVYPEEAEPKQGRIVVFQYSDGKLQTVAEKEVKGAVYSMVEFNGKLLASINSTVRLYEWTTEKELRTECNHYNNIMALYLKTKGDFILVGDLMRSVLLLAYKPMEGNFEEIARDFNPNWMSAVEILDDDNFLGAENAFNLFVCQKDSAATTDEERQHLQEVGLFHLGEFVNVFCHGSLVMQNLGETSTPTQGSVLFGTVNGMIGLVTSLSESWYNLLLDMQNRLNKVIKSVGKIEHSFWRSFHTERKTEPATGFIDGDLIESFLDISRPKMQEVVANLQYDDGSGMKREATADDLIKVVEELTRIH
How it was run: (§1)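 After compound exposure, cells were harvested and lysates run on SDS-PAGE, transferred to nitrocellulose and probed with antibodies. Remaining target (%) was computed from band grayscale relative to an internal control protein and normalised; degradation (%) was 100% minus that.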

IKZF2 = target: T2, IKZF2 (Homo sapiens, UniProt Q96SW2+Q9UKS7); assay: Western blot degradation of IKZF2 (hPBMC); conditions: Table D16
T2 construct: evaluate the effects of the compounds of the present disclosure on the expression of target proteins in cells; endogenous in cells; host or cells: hPBMC
T2 sequence (Q9UKS7 whole entry): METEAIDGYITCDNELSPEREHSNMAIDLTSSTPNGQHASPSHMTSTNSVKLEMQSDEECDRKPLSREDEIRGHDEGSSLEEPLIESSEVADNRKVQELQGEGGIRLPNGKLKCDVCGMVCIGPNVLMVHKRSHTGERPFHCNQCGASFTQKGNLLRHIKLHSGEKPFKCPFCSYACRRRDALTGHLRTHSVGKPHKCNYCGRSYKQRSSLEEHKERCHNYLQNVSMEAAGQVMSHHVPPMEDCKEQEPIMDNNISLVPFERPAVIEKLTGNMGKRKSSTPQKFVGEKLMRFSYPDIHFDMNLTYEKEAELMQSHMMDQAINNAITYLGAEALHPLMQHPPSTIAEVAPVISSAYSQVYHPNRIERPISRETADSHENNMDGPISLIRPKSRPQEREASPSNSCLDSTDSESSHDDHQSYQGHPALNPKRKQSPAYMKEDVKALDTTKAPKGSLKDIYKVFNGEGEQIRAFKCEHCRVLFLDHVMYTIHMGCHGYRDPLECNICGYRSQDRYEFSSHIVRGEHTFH
T2 sequence (Q96SW2 whole entry): as the sequence (Q96SW2 whole entry) above
T2 sequence (Q16531 whole entry partner): as the sequence (Q16531 whole entry partner) above
How it was run: as §1

IKZF1 = target: T3, IKZF1 (Homo sapiens, UniProt Q13422+Q96SW2); assay: Western blot degradation of IKZF1 (hPBMC); conditions: Table D16
T3 construct: evaluate the effects of the compounds of the present disclosure on the expression of target proteins in cells; endogenous in cells; host or cells: hPBMC
T3 sequence (Q13422 whole entry): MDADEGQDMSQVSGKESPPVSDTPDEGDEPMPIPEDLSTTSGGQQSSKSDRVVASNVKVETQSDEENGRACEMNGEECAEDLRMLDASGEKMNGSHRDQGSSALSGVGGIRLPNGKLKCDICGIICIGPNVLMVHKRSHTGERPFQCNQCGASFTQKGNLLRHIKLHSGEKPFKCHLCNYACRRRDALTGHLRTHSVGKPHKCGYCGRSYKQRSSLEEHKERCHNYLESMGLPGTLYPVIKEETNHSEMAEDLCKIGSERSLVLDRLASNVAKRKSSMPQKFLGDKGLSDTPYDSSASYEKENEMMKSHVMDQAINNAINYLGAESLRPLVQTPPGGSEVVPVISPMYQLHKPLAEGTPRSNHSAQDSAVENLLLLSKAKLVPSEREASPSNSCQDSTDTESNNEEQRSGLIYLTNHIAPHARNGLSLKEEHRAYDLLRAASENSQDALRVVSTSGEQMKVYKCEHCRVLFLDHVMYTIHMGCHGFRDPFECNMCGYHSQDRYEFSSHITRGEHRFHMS
T3 sequence (Q96SW2 whole entry): as the sequence (Q96SW2 whole entry) above
T3 sequence (Q16531 whole entry partner): as the sequence (Q16531 whole entry partner) above
How it was run: as §1

GSPT1 = target: T4, GSPT1 (Homo sapiens, UniProt P15170+Q96SW2); assay: Western blot degradation of GSPT1 (hPBMC); conditions: Table D16
T4 construct: evaluate the effects of the compounds of the present disclosure on the expression of target proteins in cells; endogenous in cells; host or cells: hPBMC
How it was run: as §1

MM.1S = assay: CCK-8 proliferation, MM.1S; conditions: Homo sapiens, MM1.S, read-out: Inhibitory activity (IC50) on tumor cell proliferation, MM1S
How it was run: (§2)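 Tumor cells were cultured at 37°C with 5% CO2, seeded, and after 24h treated with compounds at 10 concentrations starting at 10µM (5-fold serial dilutions).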

IKZF3 = target: T5, IKZF3 (Homo sapiens, UniProt Q96SW2+Q9UKT9); assay: Western blot degradation of IKZF3 (hPBMC); conditions: Table D16
T5 construct: evaluate the effects of the compounds of the present disclosure on the expression of target proteins in cells; endogenous in cells; host or cells: hPBMC
T5 sequence (Q9UKT9 whole entry): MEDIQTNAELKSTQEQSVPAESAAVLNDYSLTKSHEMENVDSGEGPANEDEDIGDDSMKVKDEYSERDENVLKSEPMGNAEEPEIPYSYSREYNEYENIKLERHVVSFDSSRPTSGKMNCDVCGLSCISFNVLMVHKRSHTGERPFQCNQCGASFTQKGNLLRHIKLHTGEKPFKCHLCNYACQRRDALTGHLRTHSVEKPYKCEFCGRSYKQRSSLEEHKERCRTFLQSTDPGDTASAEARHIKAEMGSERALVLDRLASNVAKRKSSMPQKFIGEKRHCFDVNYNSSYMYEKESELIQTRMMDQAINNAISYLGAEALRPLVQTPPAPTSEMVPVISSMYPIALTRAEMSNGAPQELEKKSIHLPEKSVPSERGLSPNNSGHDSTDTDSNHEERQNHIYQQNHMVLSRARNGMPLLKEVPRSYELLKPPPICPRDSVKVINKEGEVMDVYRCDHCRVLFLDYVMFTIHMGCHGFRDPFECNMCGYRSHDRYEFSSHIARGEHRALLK
T5 sequence (Q96SW2 whole entry): as the sequence (Q96SW2 whole entry) above
T5 sequence (Q16531 whole entry partner): as the sequence (Q16531 whole entry partner) above
How it was run: as §1

CK1a = target: T6, CK1a (Homo sapiens, UniProt P48729+Q96SW2); assay: Western blot degradation of CK1a (hPBMC); conditions: Table D16
T6 construct: evaluate the effects of the compounds of the present disclosure on the expression of target proteins in cells; endogenous in cells; host or cells: hPBMC
T6 sequence (P48729 whole entry): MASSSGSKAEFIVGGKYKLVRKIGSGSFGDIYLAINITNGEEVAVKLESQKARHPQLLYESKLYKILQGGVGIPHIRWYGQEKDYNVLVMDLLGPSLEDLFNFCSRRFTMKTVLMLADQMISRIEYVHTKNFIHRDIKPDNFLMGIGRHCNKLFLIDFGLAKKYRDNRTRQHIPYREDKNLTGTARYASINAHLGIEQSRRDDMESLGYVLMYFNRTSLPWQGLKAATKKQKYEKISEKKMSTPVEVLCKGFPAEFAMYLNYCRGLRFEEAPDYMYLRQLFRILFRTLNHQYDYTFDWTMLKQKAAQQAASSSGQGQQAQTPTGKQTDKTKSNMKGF
T6 sequence (Q96SW2 whole entry): as the sequence (Q96SW2 whole entry) above
T6 sequence (Q16531 whole entry partner): as the sequence (Q16531 whole entry partner) above
How it was run: as §1

MCF7 = assay: CCK-8 proliferation, MCF7 (MCF-7); conditions: Homo sapiens
How it was run: as §2

[1] = MCF7, CCK-8, read-out: Inhibitory activity (IC50) on tumor cell proliferation, MCF-7

| IC50 (MM.1S; CCK-8, 72 hours) | IC50 (MCF7; [1]) | SMILES | Degradation of substrate protein WEE1 (substrate protein remaining %) (WEE1) | Degradation of substrate protein IKZF2 (substrate protein remaining %) (IKZF2) | Degradation of substrate protein IKZF1 (substrate protein remaining %) (IKZF1) | Degradation of substrate protein GSPT1 (substrate protein remaining %) (GSPT1) | Degradation of substrate protein IKZF3 (substrate protein remaining %) (IKZF3) | Degradation of substrate protein CKla (substrate protein remaining %) (CK1a) | IC50 (MM.1S; 72 h) | IC50 (MCF7; MCF7, read-out: Inhibitory activity (IC50) on tumor cell proliferation, MCF-7) |
| --- | --- | --- | --- | --- | --- | --- | --- | --- | --- | --- |
| 1000 to 5000 nM |  | O=Cc1ccnc(NC2CCC(=O)NC2=O)c1 (centres unmarked) [GT-07553, 2-((2,6-Dioxopiperidin-3-yl)amino)isonicotinaldehyde] | A (A is defined as 0% ≤ substrate protein remaining % ≤ 80%) | A (A is defined as 0% ≤ substrate protein remaining % ≤ 80%) | A (A is defined as 0% ≤ substrate protein remaining % ≤ 80%) | B (B is defined as substrate protein remaining % > 80%) | B (B is defined as substrate protein remaining % > 80%) | B (B is defined as substrate protein remaining % > 80%) |  |  |
| 1000 to 5000 nM |  | O=C1CCN(c2cnc(CCl)c(F)c2)C(=O)N1 [GT-07557, 1-(6-(Chloromethyl)-5-fluoropyridin-3-yl)dihydropyrimidine-2,4(1H,3H)-dione] | A (A is defined as 0% ≤ substrate protein remaining % ≤ 80%) | B (B is defined as substrate protein remaining % > 80%) | A (A is defined as 0% ≤ substrate protein remaining % ≤ 80%) | B (B is defined as substrate protein remaining % > 80%) | B (B is defined as substrate protein remaining % > 80%) | A (A is defined as 0% ≤ substrate protein remaining % ≤ 80%) |  |  |
|  | 1000 to 5000 nM | O=C1CCC(Nc2cc(CO)c(F)cn2)C(=O)N1 (centres unmarked) [GT-07725, 3-((5-fluoro-4-(hydroxymethyl)pyridin-2-yl)amino)piperidine-2,6-dione] | A (A is defined as 0% ≤ substrate protein remaining % ≤ 80%) | A (A is defined as 0% ≤ substrate protein remaining % ≤ 80%) | A (A is defined as 0% ≤ substrate protein remaining % ≤ 80%) | A (A is defined as 0% ≤ substrate protein remaining % ≤ 80%) | A (A is defined as 0% ≤ substrate protein remaining % ≤ 80%) | B (B is defined as substrate protein remaining % > 80%) |  |  |
|  | 1000 to 5000 nM | O=C1CCC(Nc2ncncc2CO)C(=O)N1 (centres unmarked) [GT-07727, 3-((5-(Hydroxymethyl)pyrimidin-4-yl)amino)piperidine-2,6-dione] | A (A is defined as 0% ≤ substrate protein remaining % ≤ 80%) | A (A is defined as 0% ≤ substrate protein remaining % ≤ 80%) | A (A is defined as 0% ≤ substrate protein remaining % ≤ 80%) | B (B is defined as substrate protein remaining % > 80%) | A (A is defined as 0% ≤ substrate protein remaining % ≤ 80%) | B (B is defined as substrate protein remaining % > 80%) |  |  |

Second part, the compound before the results:

| SMILES | IC50 (MM.1S; CCK-8, 72 hours) | IC50 (MCF7; [1]) | Degradation of substrate protein WEE1 (substrate protein remaining %) (WEE1) | Degradation of substrate protein IKZF2 (substrate protein remaining %) (IKZF2) | Degradation of substrate protein IKZF1 (substrate protein remaining %) (IKZF1) | Degradation of substrate protein GSPT1 (substrate protein remaining %) (GSPT1) | Degradation of substrate protein IKZF3 (substrate protein remaining %) (IKZF3) | Degradation of substrate protein CKla (substrate protein remaining %) (CK1a) | IC50 (MM.1S; 72 h) | IC50 (MCF7; MCF7, read-out: Inhibitory activity (IC50) on tumor cell proliferation, MCF-7) |
| --- | --- | --- | --- | --- | --- | --- | --- | --- | --- | --- |
| NCc1ccnc(N2CCC(=O)NC2=O)c1 [GT-07198, 1-(4-(Aminomethyl)pyridin-2-yl)dihydropyrimidine-2,4(1H,3H)-dione] | 1000 to 5000 nM |  | B (B is defined as substrate protein remaining % > 80%) | B (B is defined as substrate protein remaining % > 80%) | B (B is defined as substrate protein remaining % > 80%) | B (B is defined as substrate protein remaining % > 80%) | A (A is defined as 0% ≤ substrate protein remaining % ≤ 80%) | B (B is defined as substrate protein remaining % > 80%) |  |  |
| O=Cc1cnc(NC2CCC(=O)NC2=O)nc1 (centres unmarked) [GT-07367, 2-((2,6-Dioxopiperidin-3-yl)amino)pyrimidine-5-carbaldehyde] | 1000 to 5000 nM |  | B (B is defined as substrate protein remaining % > 80%) | B (B is defined as substrate protein remaining % > 80%) | B (B is defined as substrate protein remaining % > 80%) | A (A is defined as 0% ≤ substrate protein remaining % ≤ 80%) | B (B is defined as substrate protein remaining % > 80%) | A (A is defined as 0% ≤ substrate protein remaining % ≤ 80%) |  |  |
| NCc1cc(N2CCC(=O)NC2=O)ncc1F [GT-07369, 1-(4-(Aminomethyl)-5-fluoropyridin-2-yl)dihydropyrimidine-2,4(1H,3H)-dione] | 1000 to 5000 nM |  | B (B is defined as substrate protein remaining % > 80%) | B (B is defined as substrate protein remaining % > 80%) | B (B is defined as substrate protein remaining % > 80%) | A (A is defined as 0% ≤ substrate protein remaining % ≤ 80%) | B (B is defined as substrate protein remaining % > 80%) | A (A is defined as 0% ≤ substrate protein remaining % ≤ 80%) |  |  |
| CC(C)(C)[Si](C)(C)OCc1ccc(NC2CCC(=O)NC2=O)cn1 (centres unmarked) [GT-07445, 3-((6-(((tert-Butyldimethylsilyl)oxy)methyl)pyridin-3-yl)amino)piperidine-2,6-dione] |  |  | A (A is defined as 0% ≤ substrate protein remaining % ≤ 80%) | B (B is defined as substrate protein remaining % > 80%) | A (A is defined as 0% ≤ substrate protein remaining % ≤ 80%) | A (A is defined as 0% ≤ substrate protein remaining % ≤ 80%) | B (B is defined as substrate protein remaining % > 80%) | A (A is defined as 0% ≤ substrate protein remaining % ≤ 80%) | 500 to 1000 nM |  |
| O=C1CCC(Nc2cncc(CO)c2)C(=O)N1 (centres unmarked) [GT-07448, 3-((5-(Hydroxymethyl)pyridin-3-yl)amino)piperidine-2,6-dione] | 1000 to 5000 nM |  | A (A is defined as 0% ≤ substrate protein remaining % ≤ 80%) | A (A is defined as 0% ≤ substrate protein remaining % ≤ 80%) | A (A is defined as 0% ≤ substrate protein remaining % ≤ 80%) | A (A is defined as 0% ≤ substrate protein remaining % ≤ 80%) | A (A is defined as 0% ≤ substrate protein remaining % ≤ 80%) | A (A is defined as 0% ≤ substrate protein remaining % ≤ 80%) |  |  |
| CC(C)(C)[Si](C)(C)OCc1ccc(NC2CCC(=O)NC2=O)nc1 (centres unmarked) [GT-07552, 3-((5-(((tert-Butyldimethylsilyl)oxy)methyl)pyridin-2-yl)amino)piperidine-2,6-dione] |  |  | B (B is defined as substrate protein remaining % > 80%) | A (A is defined as 0% ≤ substrate protein remaining % ≤ 80%) | B (B is defined as substrate protein remaining % > 80%) | B (B is defined as substrate protein remaining % > 80%) | B (B is defined as substrate protein remaining % > 80%) | B (B is defined as substrate protein remaining % > 80%) | 1000 to 5000 nM |  |
| CC(C)(C)[Si](C)(C)OCc1ccc(NC2CCC(=O)NC2=O)nn1 (centres unmarked) [GT-07726, 3-((6-(((tert-Butyldimethylsilyl)oxy)methyl)pyridazin-3-yl)amino)piperidine-2,6-dione] |  |  | A (A is defined as 0% ≤ substrate protein remaining % ≤ 80%) | A (A is defined as 0% ≤ substrate protein remaining % ≤ 80%) | A (A is defined as 0% ≤ substrate protein remaining % ≤ 80%) | B (B is defined as substrate protein remaining % > 80%) | A (A is defined as 0% ≤ substrate protein remaining % ≤ 80%) | B (B is defined as substrate protein remaining % > 80%) |  | 1000 to 5000 nM |
